Converted amounts (≈) assume the structure as drawn.
Tests used:
KB = experiment: Cytotoxicity against human KB cells; format: functional, cell-based
L1210 = experiment: Cytotoxicity against mouse L1210 cells; format: functional, cell-based
Micrococcus luteus = experiment: Antibacterial activity against Sarcina lutea; format: functional

Row | MIC (Micrococcus luteus) [µg/mL] | SMILES | IC50 (KB) [µg/mL] | IC50 (L1210) [µg/mL]
1 | 1.25 (≈ 2.21 µM) | Oc1ccc2[nH]c3c(C4=C[C@@]5(O)CC/C=C\CCCCN6CCC4[C@]4(C[C@@H]7/C=C\CCCCN7[C@H]45)C6)nccc3c2c1 (stereo partly specified) | 2.5 (≈ 4.43 µM) | 1.5 (≈ 2.66 µM)
2 | 4 (≈ 7.26 µM) | O[C@]12C=C(C3=NCCc4c3[nH]c3ccccc43)[C@@H]3CCN(CCCC/C=C\CC1)C[C@@]31C[C@@H]3/C=C\CCCCN3[C@H]12 [3,4-DIHYDROMANZAMINE A] | 0.61 (≈ 1.11 µM) | 0.48 (≈ 0.871 µM)

From ChEMBL document CHEMBL1148095, “6-Hydroxymanzamine A and 3,4-dihydromanzamine A, new alkaloids from the Okinawan marine sponge Amphimedon Sp” (J Nat Prod, 1994)
